In patent US20080045537A1, “Chemical Compounds” (priority 2004, published 2008):
Where two headings read alike, the source gives them in different places.

Columns and labels:
T-tropic HIV = conditions: patients that are dual tropic or have only the T-tropic form of the virus; cited from earlier work
human CXCR4 = target: T1, human CXCR4 (Homo sapiens, UniProt P61073); test: Functional FLIPR assay (block of SDF-1 alpha induced [Ca2+]i change); assay type: cell-based; conditions: HEK-293 cells with human CXCR4 BacMam and Gqi5 BacMam; antagonism of SDF-1 alpha; read-out: Functional assay (pIC50) (converted)
T1 construct: expressed in transfected cells; host or cells: HEK-293 cells (stably expressing human macrophage scavenging receptor) transduced with human CXCR4 BacMam and Gqi5 BacMam baculoviruses
Description: Human embryonic kidney (HEK-293) cells were maintained and harvested as described above. Cells were plated in 96-well, black clear bottom, poly-lysine coated plates at a concentration of 40,000 cells per well in a final volume of 100 ul containing human CXCR4BacMam (MOI=25) and Gqi5 BacMam (MOI=12.5). The cells were incubated at 37° C., 5% CO2, 95% humidity for 24 h to allow for protein expression.
After the required incubation time the cells were washed once with 50 ul of fresh serum-free DMEM/F12 media containing probenicid. 50 ul of dye solution was then added to the cells (Calcium Plus Assay Kit Dye; Molecular Devices) was dissolved in 200 ml of the above probenicid/BSA containing media and incubated for 1 h. Cell plates were transferred to a Fluorometric Imaging Plate Reader (FLIPR). Upon addition the effect of the compounds on the change in [Ca^2+]i was examined to determine if the compounds were agonists or antagonists (ability to block SDF-1 alpha activity) at the CXCR4 receptor. IC50 values are determined and pKb values are calculated using the Leff and Dougall equation: KB=IC50/((2+([agonist]/EC50ˆb)ˆ1/b−1) Where IC50 is that defined by the antagonist concentration-response curve [agonist] is the EC80 concentration of agonist used EC50 is that defined by the agonist concentration-response curve b is the slope of the agonist concentration-response curve.

[1] = system: HIV-1 gp160 (from the HXB2 HIV strain); test: Cell/cell fusion assay (HEK-293 expressing HIV-1 tat, rev, gp160 with HOS hCXCR4/hCCR5/hCD4/pHIV-LTR-luciferase cells); assay type: cell-based; conditions: Human immunodeficiency virus 1, HXB2, HEK293, 24 h, read-out: Fusion assay (pIC50), luciferase readout after 24 h (converted)
Excerpt: The complete coding sequences of HIV-1 tat (GenBank Accession No. X07861) and rev (GenBank Accession No. M34378) were cloned into pcDNA3.1 expression vectors containing G418 and hygromycin resistance genes, respectively. The complete coding sequence of the HIV-1 (HXB2 strain) gp160 envelope gene (nucleotide bases 6225-8795 of GenBank Accession No. K03455) was cloned into plasmid pCRII-TOPO. The three HIV genes were additionally inserted into the baculovirus shuttle vector, pFastBacMam1, under the transcriptional control of the CMV promoter. A construction of the pHIV-I LTR containing mutated NFkB sequences linked to the luciferase reporter gene was prepared by digesting pcDNA3.1, containing the G418 resistance gene, with Nru I and Bam HI to remove the CMV promoter. LTR-luc was then cloned into the Nru I/Bam HI sites of the plasmid vector. Plasmid preparations were performed after the plasmids were amplified in Escherichia coli strain DH5-alpha. The fidelity of the inserted sequences was confirmed by double-strand nucleotide sequencing using an ABI Prism Model 377 automated sequencer.
Recombinant BacMam baculoviruses were constructed from pFastBacMam shuttle plasmids by using the bacterial cell-based Bac-to-Bac system. Viruses were propagated in Sf9 (Spodoptera frugiperda) cells cultured in Hink's TNM-FH Insect media supplemented with 10% (v/v) fetal bovine serum and 0.1% (v/v) pluronic F-68 according to established protocols.
Human osteosarcoma (HOS) cells that naturally express human CXCR4 were transfected with human CCR5, human CD4 and the pHIV-LTR-luciferase plasmid using FuGENE 6 transfection reagent. Single cells were isolated and grown under selection condition in order to generate a stable HOS (hCXCR4/hCCR5/hCD4/pHIV-LTR-luciferase) clonal cell line. The cells were maintained in Dulbeccos modified Eagles media supplemented with 10% fetal calf serum (FCS), G418 (400 ug/ml), puromycin (1 ug/ml), mycophenolic acid (40 ug/ml), xanthine (250 ug/ml) and hypoxanthine (13.5 ug/ml) to maintain a selection pressure for cells expressing the LTR-luciferase, hCCR5 and hCD4, respectively. Human embryonic kidney (HEK-293) cells stably transfected to express the human macrophage scavenging receptor (Class A, type 1; GenBank Accession No. D90187), were maintained in DMEM/F-12 media (1:1) supplemented with 10% FCS and 1.5 ug/ml puromycin. The expression of this receptor by the HEK-293 cells enhances their ability to stick to tissue culture treated plasticware.
HEK-293 cells were harvested using enzyme-free cell dissociation buffer. The cells were resuspended in DMEM/F-12 media supplemented with 10% FCS and 1.5 ug/ml and counted. Tranductions were performed by direct addition of BacMam baculovirus containing insect cell media to cells. The cells were simultaneously transduced with BacMam baculovirus expressing HIV-1 tat, HIV-1 rev and HIV-1 gp160 (from the HXB2 HIV strain). Routinely an MOI of 10 of each virus was added to the media containing the cells. 2 mM butyric acid was also added to the cells at this stage to increase protein expression in transduced cells. The cells were subsequently mixed and seeded into a flask at 30 million cells per T225. The cells were incubated at 37° C., 5% CO2, 95% humidity for 24 h to allow for protein expression.
HEK and HOS cells were harvested in DMEM/F-12 media containing 2% FCS and DMEM media containing 2% FCS, respectively, with no selection agents added. Compounds were plated as 1 ul spots in 100% DMSO on a 96-well CulturPlate plates. HOS cells (50 ul) were added first to the wells, followed immediately by the HEK cells (50 ul). The final concentration of each cell type was 20,000 cells per well. Following these additions, the cells were returned to a tissue culture incubator (37° C.; 5% CO2/95% air) for an additional 24 h.
Following the 24 h incubation, total cellular luciferase activity was measured using the LucLite Plus assay kit (Packard, Meridien, Conn.). […]

[2] = system: HIV-1 IIIB (T-tropic, CXCR4 utilizing); test: HOS HIV-1 infectivity assay; assay type: cell-based
Method in brief: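 Engineered HOS reporter cells in 2% FCS medium received compound 1 h ahead of HIV-1 (~2 million RLU/well). Cultures ran 96 h at 37 °C before luciferase quantitation; parallel uninfected wells were scored for viability by CellTiter-Glo.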

[3] = Compound cytotoxicity in the absence of virus addition (CellTiter-Glo); assay type: cell-based; conditions: human; non-infected HOS cultures; read-out: Cytotox (pIC50) (converted)
Description: Compounds were profiled against two HIV-1 viruses, the M-tropic (CCR5 utilizing) Ba-L strain and the T-tropic (CXCR4 utilizing) IIIB strain. Both viruses were propagated in human peripheral blood lymphocytes. Compounds were tested for there ability to block infection of the HOS cell line (expressing hCXCR4/hCCR5/hCD4/pHIV-LTR-luciferase) by either HIV-1 Ba-L or HIV-1 IIIB. Compound cytotoxicity was also examined in the absence of virus addition.
HOS cells (expressing hCXCR4/hCCR5/hCD4/pHIV-LTR-luciferase) were harvested and diluted in Dulbeccos modified Eagles media supplemented with 2% FCS and non-essential amino acid to a concentration of 60,000 cells/ml. The cells were plated into 96-well plates (100 ul per well) and the plates were placed in a tissue culture incubator (37° C.; 5% CO2/95% air) for a period of 24 h.
Subsequently, 50 ul of the desired drug solution (4 times the final concentration) was added to each well and the plates were returned to the tissue culture incubator (37° C.; 5% CO2/95% air) for 1 h. Following this incubation 50 ul of diluted virus was added to each well (approximately 2 million RLU per well of virus). The plates were returned to the tissue culture incubator (37° C.; 5% CO2/95% air) and were incubated for a further 96 h.
Following this incubation the endpoint for the virally infected cultures was quantified following addition of Steady-Glo Luciferase assay system reagent (Promega, Madison, Wis.). Cell viability or non-infected cultures was measured using a CellTiter-Glo luminescent cell viability assay system (Promega, Madison, Wis.). All luminescent readouts are performed on a Topcount luminescence detector (Packard, Meridien, Conn.).

[4] = Human immunodeficiency virus 1, IIIB, as determined by the infectivity assay, strain not stated in Table 2, read-out: Activity Level
[5] = Human immunodeficiency virus 1, HIV-1 IIIB, HOS cells, 96 h, luciferase readout, read-out: HOS (3B)
[6] = as determined by the infectivity assay, strain not stated in Table 2, read-out: Activity Level

T1 sequence (P61073 whole entry): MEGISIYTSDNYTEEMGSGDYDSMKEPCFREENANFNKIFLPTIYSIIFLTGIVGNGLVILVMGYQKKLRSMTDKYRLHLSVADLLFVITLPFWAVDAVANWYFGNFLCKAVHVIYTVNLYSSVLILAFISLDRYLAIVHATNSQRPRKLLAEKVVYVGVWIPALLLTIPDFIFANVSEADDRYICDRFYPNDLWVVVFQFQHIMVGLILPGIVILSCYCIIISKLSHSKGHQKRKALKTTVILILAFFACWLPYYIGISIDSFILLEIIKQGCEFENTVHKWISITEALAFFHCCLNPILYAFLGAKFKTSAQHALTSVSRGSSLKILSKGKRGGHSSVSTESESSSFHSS

| Structure (SMILES) | T-tropic HIV viral load (T-tropic HIV) | IC50 (human CXCR4) | IC50 [1] | IC50 [2, 4] | IC50 [2, 5] | IC50 at 96 h [3] | IC50 [2, 6] |
| --- | --- | --- | --- | --- | --- | --- | --- |
| c1cc(CN2CCCNCCNCCCNCC2)ccc1CN1CCCNCCNCCCNCC1 [AMD-3100] | significantly reduce T-tropic HIV viral load |  |  |  |  |  |  |
| CN(C)CCCNC(=O)c1cccc2[nH]c(CN(C)C3CCCc4cccnc43)nc12 (centres unmarked) [Example 29, N-[3-(Dimethylamino)propyl]-2-{[methyl(5,6,7,8-tetrahydro-8-quinolinyl)amino]methyl}-1H-benzimidazole-4-carboxamide] |  | 132 nM | 257 nM | < 100 nM | 81 nM | > 100000 nM |  |
| CN(Cc1nc2c(C(=O)N3CCC(N)CC3)cccc2[nH]1)C1CCCc2cccnc21 (centres unmarked) [Example 30, N-({4-[(4-Amino-1-piperidinyl)carbonyl]-1H-benzimidazol-2-yl}methyl)-N-methyl-5,6,7,8-tetrahydro-8-quinolinamine] |  | 2000 nM | 407 nM |  | 75 nM | > 100000 nM | < 100 nM |
| CN(Cc1nc2c(C(=O)N3CCC(N)C3)cccc2[nH]1)C1CCCc2cccnc21 (centres unmarked) [Example 31, N-({4-[(3-Amino-1-pyrrolidinyl)carbonyl]-1H-benzimidazol-2-yl}methyl)-N-methyl-5,6,7,8-tetrahydro-8-quinolinamine] |  | 12.3 nM | 49 nM |  | 22 nM | > 100000 nM | < 100 nM |
| CN(Cc1nc2c(CNCCc3c[nH]cn3)cccc2[nH]1)C1CCCc2cccnc21 (centres unmarked) [Example 32, N-{[4-({[2-(1H-Imidazol-4-yl)ethyl]amino}methyl)-1H-benzimidazol-2-yl]methyl}-N-methyl-5,6,7,8-tetrahydro-8-quinolinamine] |  | 66.1 nM | 85.1 nM | < 100 nM | 45 nM | 7590 nM |  |
| CN(Cc1nc2c(CN3CCNCC3)cccc2[nH]1)C1CCCc2cccnc21 (centres unmarked) [Example 33, N-Methyl-N-{[4-(1-piperazinylmethyl)-1H-benzimidazol-2-yl]methyl}-5,6,7,8-tetrahydro-8-quinolinamine] |  | 15.1 nM | 162 nM | < 100 nM | 13 nM | > 100000 nM |  |
| CN(Cc1nc2c(N3CCNCC3)cccc2[nH]1)C1CCCc2cccnc21 (centres unmarked) [Example 34, N-methyl-N-{[4-(1-piperazinyl)-1H-benzimidazol-2-yl]-methyl}-5,6,7,8-tetrahydro-8-quinolinamine] |  | 8.13 nM | 5.5 nM |  | 6.2 nM | > 100000 nM |  |
| CN1CCN(c2cccc3nc(CN(C)C4CCCc5cccnc54)[nH]c23)CC1 (centres unmarked) [Example 35, N-methyl-N-{[4-(4-methyl-1-piperazinyl)-1H-benzimidazol-2-yl]methyl}-5,6,7,8-tetrahydro-8-quinolinamine] |  | 5.89 nM | 0.389 nM | < 100 nM | 1.6 nM | > 100000 nM |  |
